Assay results from patent publication US20250287948A1, “TOBACCO ALKALOID INSECT REPELLENT IN PLANTS” (Philip Morris Products S.A., priority 2022, published 2025).
Several values for one entry are separate records, joined by “and”; a condition that tells them apart may be missing. Equal entries are not always repeated.

Assays:
adult whitefly [1] = test: Tube test assay: repelling effect with whitefly introduced at later infestation time points (Example 4); type: in vivo; conditions: concentration 5 percent; for repelling effect: remaining 5 days (up to 123 hours) of the evaluation period
Experimental: The repelling effect of anatabine on adult whitefly was evaluated in a further comparative study which introduced additional whitefly and freshly treated leaves at set evaluation time points. For the purpose of the study, a tube test assay was performed using solutions of anatabine and DEET at a concentration of 5 percent together with a placebo solution, as shown in Table 10. The placebo control defines the baseline, against which the repelling effect is then calculated.
Whitefly were introduced into the tube at infestation time points: 48, 72 and 120 hours and the repelling effect was measured after 3 hours at evaluation time points: 51, 75 and 123 hours.

adult whitefly [2] = test: Tube test assay: repelling effect on adult whitefly, treated leaf disks (Examples 1-3); type: in vivo
Experimental: For the purpose of the study, a tube test assay was performed using solutions of anatabine and DEET prepared according to Table 1.
For the purpose of the study, leaf disks were dipped for a total time of 30 seconds into the prepared solutions and left to dry for 10 minutes at room temperature. Subsequently, the leaf disks were deposited at the bottom of glass tubes and a minimum of 20 adult whiteflies were introduced into the tubes. […] The repelling effect of both anatabine and DEET is shown in Table 2 and was calculated by counting the number of whitefly landing on a leaf compared to the placebo control, using the Abbott's formula: […]
The placebo control defines the baseline, against which the repelling effect is then calculated according to the formula above.
For the purpose of the study, a tube test assay was performed using solutions of anatabine at three different concentrations prepared according to Table 3.
The placebo control defines the baseline, against which the repelling effect is then calculated.
For the purpose of the study, leaf disks were dipped for a total time of 30 seconds into the prepared solutions and left to dry for 10 minutes at room temperature. Subsequently, the leaf disks were deposited at the bottom of glass tubes and a minimum of 20 adult whiteflies were introduced into the tubes. The repelling effect of anatabine at three different concentrations was measured at different time points: after 1 hour, 3 hours, 6 hours. the repelling effect of anatabine at different concentrations is shown in Table 4.
A concentration of 5 percent was chosen based on the results of Example 2. […] In the placebo control the leaves were treated with solvent only. The placebo control defines the baseline, against which the repelling effect is then calculated.
(§1) For the purpose of the study, leaf disks were dipped for a total time of 30 seconds into the prepared solutions and left dry for 10 minutes at room temperature. Subsequently, the leaf disks were deposited at the bottom of glass tubes and a minimum of 20 adult whiteflies were introduced into the tubes.

whitefly [3] = test: Whitefly mortality on treated leaves; type: in vivo; conditions: concentration 5 percent
Experimental: as §1
The study also assessed the whitefly mortality rate over the duration of the evaluation period. […]

leaves = test: Damage to leaves caused by treatment
Experimental: For the purpose of the study, leaf disks were dipped for a total time of 30 seconds into the prepared solutions and left to dry for 10 minutes at room temperature. Subsequently, the leaf disks were deposited at the bottom of glass tubes and a minimum of 20 adult whiteflies were introduced into the tubes.
as §1

whitefly [4] = test: Presence of eggs on treated leaves, evaluated visually; type: in vivo; conditions: concentration 5 percent; evaluation period of up to 6 days (144 hours)
Experimental: In addition, the presence and amount of eggs on the leaves after a period of 48 hours was evaluated visually and the results are shown in Table 7.
The presence of eggs was visually monitored 24 hours after each infestation time point.

[5] = infestation time 48 hour, evaluation time 51 hour
[6] = infestation time 72 hour, evaluation time 75 hour
[7] = infestation time 120 hour, evaluation time 123 hour
[8] = concentration 1.0 percent, evaluation time 0 hour
[9] = concentration 1.0 percent, evaluation time 1 hour
[10] = concentration 1.0 percent, evaluation time 3 hour
[11] = concentration 5 percent, evaluation time 0 hour (Example 3)
[12] = concentration 5 percent, evaluation time 6 hour (Example 3)
[13] = concentration 5 percent, evaluation time 24 hour (Example 3)
[14] = concentration 5 percent, evaluation time 48 hour (Example 3)

Row | Structure (SMILES) | Mean Repellence (adult whitefly [1]; [5]) [%] | Mean Repellence (adult whitefly [1]; [6]) [%] | Mean Repellence (adult whitefly [1]; [7]) [%] | repelling effect (adult whitefly [1]) | Mean Repellence (adult whitefly [2]; [8]) [%] | Mean Repellence (adult whitefly [2]; [9]) [%] | Mean Repellence (adult whitefly [2]; [10]) [%] | Mean Repellence (adult whitefly [2]; [11]) [%] | Mean Repellence (adult whitefly [2]; [12]) [%] | Mean Repellence (adult whitefly [2]; [13]) [%] | Mean Repellence (adult whitefly [2]; [14]) | Mean Mortality (whitefly [3]; evaluation time 0 hour) [%] | Mean Mortality (whitefly [3]; evaluation time 6 hour) [%] | Mean Mortality (whitefly [3]; evaluation time 24 hour) [%] | Mean Mortality (whitefly [3]; evaluation time 48 hour) [%] | further results
1 | CCN(CC)C(=O)c1cccc(C)c1 [DEET, N,N-Diethyl-meta-toluamide, reference compound] | 54.1 | 55.9 | 48.9 | below 50% | 87.5 | 90.0 | 68.0 | 100 | 100 | 94.9 | 93% and 93.4% | 0.0 | 1.4 | 50.0 | 80.3 | drop of efficacy (adult whitefly [1]; after the first 48 hours): ~50%; drop of the repelling effect (adult whitefly [2]; concentration 1.0 percent, after 6 hours): ~40%
2 | COC(=O)c1ccccc1 [Methyl Benzoate, methyl benzoate, reference compound] | – | – | – | – | – | – | – | 100 | 47.2 | 76.8 | 76.5% | 0.0 | 1.4 | 47.6 | 77.8 | drop of the repelling effect (adult whitefly [2]; concentration 5 percent, by the end of the 48 hours evaluation period): ~25%
3 | C1=CCC(c2cccnc2)NC1 (stereo not drawn) [Anatabine, anatabine] | 100 | 85.3 | 82.2 | more than 80% | 81.3 | 90.0 | 96.0 | 100 | 100 | 100 | 100% | 0.0 | 7.6 | 41.3 | 84.6 | Leaves damage (leaves; concentration 5 percent, evaluation time 48 hour): did not cause any damage; damage to leaves (leaves; concentrations of 5 percent or less (Example 2)): not damaged; number of eggs observed on the leaves (whitefly [4]): remained low; Mean Repellence (adult whitefly [2]; concentration 1.0 percent, evaluation time 6 hour): 88.9%; repelling effect (adult whitefly [2]; concentration 1.0 percent, throughout the evaluation period of 6 hours): over 80%; Mean Repellence (adult whitefly [2]; concentration 2 percent, evaluation time 3 hour): 100%; Mean Repellence (adult whitefly [2]; concentration 2 percent, evaluation time 6 hour): 100%; Mean Repellence (adult whitefly [2]; concentration 5 percent, evaluation time 3 hour (Example 2)): 100%; Mean Repellence (adult whitefly [2]; concentration 5 percent, evaluation time 6 hour (Example 2)): 100%; repelling effect (adult whitefly [2]; concentration 5 percent, throughout the evaluation period of 48 hours): 100%; Mean Repellence (adult whitefly [2]; concentration 10 percent, evaluation time 3 hour): 100%; Mean Repellence (adult whitefly [2]; concentration 10 percent, evaluation time 6 hour): 100%; repelling effect (adult whitefly [2]; regardless of the concentration (2, 5, 10 percent), 3 and 6 hours): 100%
